According to paper PMC4434909, “In vitro properties of designed antimicrobial peptides that exhibit potent antipneumococcal activity and produces synergism in combination with penicillin” (Scientific Reports, 2015):
“And” between values parts separate entries of the source, which are not always exact repeats. Identical values can stand only once. Like-named read-outs stand apart in the source and are kept apart here. Where no end group is shown, it is not given here.

How the values were obtained:
K. pneumoniae = assay type: cell-based, Klebsiella pneumoniae; conditions: Gram-negative, clinical isolate; broth microdilution, CAMHB, peptides 1.96–250 μg/ml
Text: All bacterial strains were obtained from Department of Medical Microbiology, University of Malaya. Clinical isolates were previously obtained from University of Malaya Medical Centre and maintained in the laboratory. Sheep blood agar was used for pneumococcal cultivation purpose. Nutrient agar was used for cultivating E. coli ATCC 25922, S. aureus ATCC 25923, and P. aeruginosa ATCC 15442, Acinetobacter baumanii ATCC 15308, and one clinical isolate for each MRSA, E. cloacae, Citrobacter spp., and K. pneumoniae. For antimicrobial testing, Mueller-Hinton agar (MHA) and cationically-adjusted MHB (CAMHB) were prepared according to the Clinical and Laboratory Standard Institute guidelines. MHA for S. pneumoniae was supplemented with 5% (v/v) defibrinated sheep blood and 5% laked horse blood for CAMHB. All bacterial cultures were stored in multiple vials in brain heart infusion broth supplemented with 10% (v/v) glycerol at −80°C to avoid repeated freeze-thawed cycles on the cells. All freeze-stocked strains were passaged twice prior to experimentation.
Procedures were performed to determine the MIC of peptides according to the CLSI guidelines[21] against 60 pneumococcal isolates which consisted of 20 isolates each for PRSP, PISP, and PSSP. Strains were grown for 18–24 hrs at 37°C under 5% CO2. Direct suspension of the colonies were made in CAMHB and adjusted to OD625 0.08–0.1 which corresponds to 1 ~ 2 × 10^8 CFU/ml followed by serial ten-fold dilutions to give 1 × 10^6 CFU/ml. Fifty microliters of bacterial suspension was then aliquoted to 96-well round bottom microtiter plates containing equal volume of serially diluted peptides to give final concentrations of peptides encompassing the range of 1.96–250 μg/ml. […] The plates were incubated for 18–24 hrs at 37°C under 5% CO2. MIC was read as the concentration of peptide producing complete inhibition on the visible growth of the test organism. Results were pooled from three independent experiments. MIC range was defined as the range of concentrations where the peptides produce detectable antimicrobial activity. Effective percentage (EP) was the proportion of pneumococcal isolates inhibited within the MIC range. Since the isolates tested were obtained prior to 2008 where major revision in antibiotic susceptibility breakpoints were introduced, thus the pneumococci were defined according to the PEN susceptibility breakpoint (prior 2008) which corresponds to the PEN (oral penicillin V) breakpoint of the revised criteria.
The broad spectrum antibacterial activity of the peptides against a panel of eight clinically important bacteria was also determined, this includes S. aureus ATCC 25923, E. coli ATCC 25922, P. aeruginosa ATCC 15442, A. baumanii ATCC 15308, and one clinical isolate each for MRSA, E. cloacae, Citrobacter spp., and K. pneumoniae.

human erythrocytes = test: Hemolytic activity; assay type: cell-based; conditions: for Hmax: percentage hemolysis at the highest concentration tested (all peptides 250 μg/ml; PEN 4 μg/ml)
Method: Hemolytic assay was performed as described. Freshly drawn human erythrocytes were rinsed three times with PBS and resuspended in PBS to 4% (v/v). One hundred microliters of the suspension was added to 96-well microtiter plate containing equal volume of peptides to give final concentrations of peptides encompassing the range of 1.96–250 μg/ml. PBS and 0.1% (v/v) Triton-X 100 were used as 0% and 100% hemolytic control respectively. Plates were incubated at 37°C for 1 hr. Subsequently, the plate was centrifuged and the supernatant was transferred to a new plate. The release of hemoglobin in the supernatant was monitored at absorbance of 450 nm using Glomax Multidetection system (Promega, USA). Results were pooled from three independent experiments and expressed as mean ± SD. HC10 and HC50 were defined as the peptide concentrations causing 10% and 50% hemolysis on human erythrocytes, respectively. Hmax was the percentage hemolysis observed at the maximum concentration as defined throughout this study (all peptides 250 μg/ml, PEN 4 μg/ml).

[1] = concentration causing 10% hemolysis, 4% (v/v) erythrocytes in PBS, 37°C 1 hr, absorbance 450 nm, mean ± SD of three independent experiments
[2] = concentration causing 50% hemolysis, 4% (v/v) erythrocytes in PBS, 37°C 1 hr, absorbance 450 nm, three independent experiments
[3] = mean ± SD of three independent experiments

Substance | MIC, K. pneumoniae (K. pneumoniae) | HC10 (human erythrocytes) | HC50 (human erythrocytes; red cells of human, 1 h) | difference between lowest and highest detectable MIC against S. pneumoniae | HC10 (human erythrocytes; [1]) | HC50 (human erythrocytes; [2]) | Hmax (human erythrocytes; [3]) | hemolysis at the effective MIC level against S. pneumoniae (human erythrocytes; red cells of human, 1 h)
GLFDIWAWWRWRR-NH2 [DM2] | >250 µg/mL | 114.3 µg/mL | >250 µg/mL | 32 fold | – | – | – | –
GLFDIWKKLRWRR-NH2 [DM5] | 250 µg/mL | > 250 µg/mL | >250 µg/mL | – | – | – | – | –
GLFDIWKKWRWRR-NH2 [DM4] | >250 µg/mL | – | – | – | > 250 µg/mL | >250 µg/mL | < 1.0% and 0.6 ± 0.1% | –
GLFDIWKWWRWRR-NH2 [DM3] | 62.5 µg/mL | 52.7 µg/mL | >250 µg/mL | – | – | – | – | ≤ 15%
GLFDKWAWWRWRR-NH2 [DM1] | >250 µg/mL | – | – | – | > 250 µg/mL | >250 µg/mL | < 1.0% and 0.5 ± 0.1% | –
